Results reported in patent US11970474B2, “Substituted benzodiazoles and use thereof in therapy” (THOMAS HELLEDAYS STIFTELSE FÖR MEDICINSK FORSKNING, priority 2018, dated 2024).
Read-outs that look alike come from different tables or passages of the source.

Experiments:
OGG1 = OGG1 (Homo sapiens (Human), UniProt O15527); experiment: In vitro OGG1 activity assay; assay type: biochemical; settings: 800 pM OGG1 enzyme, 2 nM human APEX1, 10 nM 8-oxoA:C substrate
In short: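 Fluorescence-release assay on a duplex oligonucleotide carrying an OGG1 substrate base beside a fluorophore, quenched from the complementary strand. Excess APEX1 cleaves the abasic site left by base excision, melting the duplex and unquenching the fluorophore. Compounds in DMSO were dispensed before enzyme and substrate, and fluorescein signal was read.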

MLE12 cells = experiment: Cell viability assay in MLE12 cells (resazurin); assay type: cell-based, mouse; settings: TNF-α 20 ng/ml, resazurin added after 24 hours culture
Method: (§1) Stock solutions (10 mM in DMSO) of compounds were dispensed in V-bottom 384-well plates and the following dilutions were prepared: 10 mM and 0.05 mM. The dilutions were transferred to the source plate. Duplicate 6 points dose-response curves of compounds were nano-dispensed in cell plates (CCL2 assay) and in parallel, 11 points DR curves in duplicates were nano-dispensed for the viability assay. The plates were heat sealed and kept at RT until use.
(§2) MLE12 cells in flasks were washed once with PBS, detached with Trypsin/EDTA, resuspended in fresh medium and counted. Cells were diluted to 3×10^5 cells/ml and seeded with Multidrop Combi in cell plates pre-dispensed with compounds, 25 μl/well (7500 cells/well). The plates were placed, one by one, in a CO2-incubator at 37° C. for 1 hour after which 25 μl/well of TNF-α (final concentration 20 ng/ml) were added. The plates were transferred back to the CO2-incubator placed in a plastic box with wet tissue in the bottom, to avoid evaporation, for 30 hours.
After 24 hours culture, resazurin reagent (stock 1 mg/ml in PBS) diluted 1:17 in PBS was added with Multidrop Combi, 10 μl/well, and plates were incubated for 6 hours. Plates were read in Sense plate reader with resorufin protocol (ex544 nm/em595 nm). The results were imported to an excel template where the EC50 values were calculated using XLfit.

CCL2 = experiment: Mouse CCL2 assay in MLE12 cells; assay type: cell-based; settings: MLE12 cells, TNF-α 20 ng/ml, supernatant after 30 hours, HTRF, read-out: CCL2 (EC50)
Text: Cisbio mouse CCL2 assay is intended for the quantitative measurement of CCL2 in supernatant using HTRF® technology. The assay is compatible with mouse samples, and is highly specific for CCL2. CCL2 is detected in a sandwich assay format using 2 different specific antibodies, one labeled with Cryptate (donor) and the second with d2 (acceptor). The detection principle is based on HTRF® technology. When the labelled antibodies bind to the same antigen, the excitation of the donor with a light source (laser or flash lamp) triggers a Fluorescence Resonance Energy Transfer (FRET) towards the acceptor, which in turn fluoresces at a specific wavelength (665 nm). The two antibodies bind to the CCL2 present in the sample, thereby generating FRET. Signal intensity is proportional to the number of antigen-antibody complexes formed and therefore to the CCL2 concentration. • Materials: • Cells: MLE12 (Mouse Lung Epithelial cells, SV40 transformed) • Medium: DMEM/F12 (Gibco #11330057), FBS 5% (Gibco #10500064), Pen/Strep 50 U/50 μg/ml (Gibco #15070063) • Cell plates: 384-well, black/clear, TC-treated (Corning #3764) • Source plate: Labcyte LDV 384 (Labcyte #LP-0200) • Compound dilution plate: V-bottom 384-well PP plate (Greiner #781280) • Compounds: 10 mM stocks in DMSO • HTRF plates: 384-well, white, half area, non-binding (Costar #3824) • Mouse CCL2 kit: Cisbio 62MCCL2PEH • Other reagents: Trypsin/EDTA 10× (Gibco #15400054), PBS (Gibco #14190169), Resazurin (Sigma-Aldrich #199303), 1 mg/ml in PBS, TNF-α 200 μg/ml in PBS (Peprotech #300-01A) • Instruments: • Echo liquid handler (Labcyte) • Multidrop Combi (Thermo Scientific) • Sense plate reader (Hidex) Compound Handling:
as §1, §2
After 30 hours incubation, the plates were spun down 5 minutes at 400 g, and 16 μl/well of the supernatants were transferred to the assay plate. A mCCL2 standard curve was prepared according to the kit protocol and 16 μl/well of the standards were also added to the assay plate.
The anti-CCL2 antibody mix was prepared according to the kit protocol, and 4 μl/well were added to the assay plate. The plate was sealed and incubated over night at RT. After incubation the plate was read in Sense plate reader with Time-resolved FRET protocol (Ex330 nm/Em 620 and 665 nm). After data reduction, the delta ratios were imported to an excel template where the IC50 values were calculated.

OGG1, sequence (O15527 whole entry): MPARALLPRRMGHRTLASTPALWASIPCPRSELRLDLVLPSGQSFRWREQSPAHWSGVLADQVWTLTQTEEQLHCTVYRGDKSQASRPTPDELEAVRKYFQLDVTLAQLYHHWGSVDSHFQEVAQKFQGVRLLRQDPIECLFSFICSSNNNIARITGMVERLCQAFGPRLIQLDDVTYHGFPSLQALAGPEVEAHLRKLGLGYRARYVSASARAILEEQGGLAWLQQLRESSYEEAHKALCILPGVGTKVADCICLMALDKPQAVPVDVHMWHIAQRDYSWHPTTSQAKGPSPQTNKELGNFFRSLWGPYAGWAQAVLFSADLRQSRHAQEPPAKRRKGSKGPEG

SMILES	IC50 (OGG1) [µM]	EC50 (CCL2; Mus musculus, MLE12, 30 h) [µM]	EC50 (CCL2) [µM]	IC50 (MLE12 cells; Mus musculus, MLE12, 24 h) [µM]	IC50 (MLE12 cells) [µM]
O=C(Nc1ccc(I)cc1)N1CCC(n2c(=O)[nH]c3c(-n4cncn4)cccc32)CC1 [Example 23, N-(4-iodophenyl)-4-[2-oxo-4-(1H-1,2,4-triazol-1-yl)-2,3-dihydro-1H-1,3-benzodiazol-1-yl]piperidine-1-carboxamide]	0.728	29		19.9	
O=C(Nc1ccc(Cl)c(F)c1)N1C2CCC1CC(n1c(=O)[nH]c3c(-c4ccc(CO)nc4)cccc31)C2 (stereo not drawn) [Example 94, N-(4-chloro-3-fluorophenyl)-3-{4-[6-(hydroxymethyl)pyridin-3-yl]-2-oxo-2,3-dihydro-1H-1,3-benzodiazol-1-yl}-(endo)-8-azabicyclo[3.2.1]octane-8-carboxamide]	0.105	20.2		8.45	
COc1cc(NC(=O)N2CCC(n3c(=O)[nH]c4c(-c5ccc(CO)nc5)cccc43)CC2)ccc1C [Example 82, 4-{4-[6-(Hydroxymethyl)pyridin-3-yl]-2-oxo-2,3-dihydro-1H-1,3-benzodiazol-1-yl}-N-(3-methoxy-4-methylphenyl)piperidine-1-carboxamide]	1	30.8		17.7	
COc1cc(NC(=O)N2CCC(n3c(=O)[nH]c4c(-n5cccn5)cccc43)CC2)ccc1C [Example 117, N-(3-methoxy-4-methylphenyl)-4-[2-oxo-4-(1H-pyrazol-1-yl)-2,3-dihydro-1H-1,3-benzodiazol-1-yl]piperidine-1-carboxamide]	1.36	65.2		14.4	
COc1cc(NC(=O)N2C3CCC2CC(n2c(=O)[nH]c4c(-c5ccc(CO)nc5)cccc42)C3)ccc1Cl (stereo not drawn) [Example 93, N-(4-chloro-3-methoxyphenyl)-3-{4-[6-(hydroxymethyl)pyridin-3-yl]-2-oxo-2,3-dihydro-1H-1,3-benzodiazol-1-yl}-(endo)-8-azabicyclo[3.2.1]octane-8-carboxamide]	0.091	34.9		21.3	
Cc1cc(NC(=O)N2C3CCC2CC(n2c(=O)[nH]c4c(-c5ccc(CO)nc5)cccc42)C3)ccc1I (stereo not drawn) [Example 91, 3-{4-[6-(Hydroxymethyl)pyridin-3-yl]-2-oxo-2,3-dihydro-1H-1,3-benzodiazol-1-yl}-N-(4-iodo-3-methylphenyl)-(endo)-8-azabicyclo[3.2.1]octane-8-carboxamide]	0.058	12.6		6.45	
COc1cc(NC(=O)[C@H]2CC[C@@H](n3c(=O)[nH]c4c(C5=CCNCC5)cccc43)CC2)ccc1C [Example 311, Cis-N-(3-methoxy-4-methylphenyl)-4-[2-oxo-4-(1,2,3,6-tetrahydropyridin-4-yl)-2,3-dihydro-1H-1,3-benzodiazol-1-yl]cyclohexane-1-carboxamide]	0.00449	14.5		13.8	

More lines, main results first:

IC50 (OGG1) [µM]	EC50 (CCL2; Mus musculus, MLE12, 30 h) [µM]	EC50 (CCL2) [µM]	SMILES	IC50 (MLE12 cells; Mus musculus, MLE12, 24 h) [µM]	IC50 (MLE12 cells) [µM]
0.0164	27.2		COc1cc(NC(=O)[C@H]2CC[C@@H](n3c(=O)[nH]c4c(N(C)CCCN)cccc43)CC2)ccc1C [Example 302, Cis-4-{4-[(3-aminopropyl)(methyl)amino]-2-oxo-2,3-dihydro-1H-1,3-benzodiazol-1-yl}-N-(3-methoxy-4-methylphenyl)cyclohexane-1-carboxamide]	14.4	
0.0153	21.5		COc1cc(NC(=O)[C@H]2CC[C@@H](n3c(=O)[nH]c4c(N5CCNCC5)cccc43)CC2)ccc1C [Example 240, Cis-N-(3-methoxy-4-methylphenyl)-4-[2-oxo-4-(piperazin-1-yl)-2,3-dihydro-1H-1,3-benzodiazol-1-yl]cyclohexane-1-carboxamide]	16.1	
0.0607	37.3		CNc1cccc2c1[nH]c(=O)n2[C@H]1CC[C@@H](C(=O)Nc2ccc(C)c(OC)c2)CC1 [Example 244, Cis-N-(3-methoxy-4-methylphenyl)-4-[4-(methylamino)-2-oxo-2,3-dihydro-1H-1,3-benzodiazol-1-yl]cyclohexane-1-carboxamide]	13.7	
0.0125	32		COc1cc(NC(=O)[C@H]2CC[C@@H](n3c(=O)[nH]c4c(OC5CCNCC5)cccc43)CC2)ccc1C [Example 307, Cis-N-(3-methoxy-4-methylphenyl)-4-[2-oxo-4-(piperidin-4-yloxy)-2,3-dihydro-1H-1,3-benzodiazol-1-yl]cyclohexane-1-carboxamide]	28.8	
0.0298	12.2	6.93	COc1cc(NC(=O)[C@H]2CC[C@@H](n3c(=O)[nH]c4c(N(C)CCN(C)C)cccc43)CC2)ccc1C [Example 229, Cis-4-(4-{[2-(dimethylamino)ethyl](methyl)amino}-2-oxo-2,3-dihydro-1H-1,3-benzodiazol-1-yl)-N-(3-methoxy-4-methylphenyl)cyclohexane-1-carboxamide]	9.19	6.67
0.086	33.7		Cc1ccc(NC(=O)[C@H]2CC[C@@H](n3c(=O)[nH]c4c(Cl)cccc43)CC2)cc1 [Example 149, (Cis)-4-(4-chloro-2-oxo-2,3-dihydro-1H-1,3-benzodiazol-1-yl)-N-(4-methylphenyl)cyclohexane-1-carboxamide]	16.7	
0.157	2.04		COc1cc(NC(=O)[C@H]2CC[C@@H](n3c(=O)[nH]c4c(OCCN(C)C(=O)OC(C)(C)C)cccc43)CC2)ccc1C [Example 308, tert-Butyl N-methyl-N-[2-({2-oxo-1-[cis-4-[(3-methoxy-4-methylphenyl)carbamoyl]cyclohexyl]-2,3-dihydro-1H-1,3-benzodiazol-4-yl}oxy)ethyl]carbamate]	0.215	
0.0335	3.13		COc1cc(NC(=O)[C@H]2CC[C@@H](n3c(=O)[nH]c4c(-c5cccc(OCCN(C)C)c5)cccc43)CC2)ccc1C [Example 225, Cis-4-(4-{3-[2-(dimethylamino)ethoxy]phenyl}-2-oxo-2,3-dihydro-1H-1,3-benzodiazol-1-yl)-N-(3-methoxy-4-methylphenyl)cyclohexane-1-carboxamide]	1.71	
0.014	30.8		COc1cc(NC(=O)[C@H]2CC[C@@H](n3c(=O)[nH]c4c(NC(=O)CN(C)C)cccc43)CC2)ccc1C [Example 283, Cis-4-{4-[2-(dimethylamino)acetamido]-2-oxo-2,3-dihydro-1H-1,3-benzodiazol-1-yl}-N-(3-methoxy-4-methylphenyl)cyclohexane-1-carboxamide]	19.8	
0.043	33.9		COc1ccc(NC(=O)[C@H]2CC[C@@H](n3c(=O)[nH]c4c(Br)cccc43)CC2)cc1F [Example 164, (Cis)-4-(4-bromo-2-oxo-2,3-dihydro-1H-1,3-benzodiazol-1-yl)-N-(3-fluoro-4-methoxyphenyl)cyclohexane-1-carboxamide]	12.9	
